This assay deals with MV-4-11 cells. Briefly: Gene expression microarray analysis (Affymetrix PrimeView) and GSEA. The class given is cell-based, human. The arrangement: RFU PODN (11730768_x_at) / Fold change /veh PODN (11730768_x_at) / RFU LINC00158 (11744669_a_at) / Fold change /veh LINC00158 (11744669_a_at) / RFU DUSP10 (11751237_a_at) / Fold change /veh DUSP10 (11751237_a_at) / RFU ID3 (11757404_x_at) / Fold change /veh ID3 (11757404_x_at) / RFU PLEKHG5 (11737974_s_at) / Fold change /veh PLEKHG5 (11737974_s_at) / RFU LRRC4B (11730491_at) / Fold change /veh LRRC4B (11730491_at) / RFU GIMAP4 (11747438_a_at) / Fold change /veh GIMAP4 (11747438_a_at) / RFU KRT8 (11758183_x_at) / Fold change /veh KRT8 (11758183_x_at) / RFU CNN1 (11734310_a_at) / Fold change /veh CNN1 (11734310_a_at) / RFU VPS37D (11726825_at) / Fold change /veh VPS37D (11726825_at) / RFU C10orf10 (11716522_x_at) / Fold change /veh C10orf10 (11716522_x_at) / RFU KIR2DL2 /// KIR2DL4 /// KIR2DL5A /// KIR2DL5B /// KIR2DS1 /// KIR2DS2 /// KIR2DS3 /// KIR2DS4 /// KIR3DL3 /// KIR3DL3 /// KIR3DS1 (11738374_at) / Fold change /veh KIR2DL2 /// KIR2DL4 /// KIR2DL5A /// KIR2DL5B /// KIR2DS1 /// KIR2DS2 /// KIR2DS3 /// KIR2DS4 /// KIR3DL3 /// KIR3DL3 /// KIR3DS1 (11738374_at) / RFU C1QL1 (11718748_at) / Fold change /veh C1QL1 (11718748_at) / RFU TMPRSS4 (11747572_a_at) / Fold change /veh TMPRSS4 (11747572_a_at) / RFU HAMP (11756126_x_at) / Fold change /veh HAMP (11756126_x_at) / RFU RNFT2 (11725882_a_at) / Fold change /veh RNFT2 (11725882_a_at) / RFU NR4A2 (11747474_a_at) / Fold change /veh NR4A2 (11747474_a_at) / RFU ABCC12 (11746883_a_at) / Fold change /veh ABCC12 (11746883_a_at) / RFU TMEM136 (11760407_x_at) / Fold change /veh TMEM136 (11760407_x_at) / RFU CLDN22 /// WWC2 (11732394_at) / Fold change /veh CLDN22 /// WWC2 (11732394_at) / RFU HLA-DPB1 (11760878_x_at) / Fold change /veh HLA-DPB1 (11760878_x_at) / RFU SPINT1 (11716480_a_at) / Fold change /veh SPINT1 (11716480_a_at) / RFU GAP43 (11754022_s_at) / Fold change /veh GAP43 (11754022_s_at) / RFU A4GNT (11735810_at) / Fold change /veh A4GNT (11735810_at) / RFU PRB3 (11715151_x_at) / Fold change /veh PRB3 (11715151_x_at) / RFU TUBB4B (11761932_at) / Fold change /veh TUBB4B (11761932_at) / RFU CAPN14 (11732068_a_at) / Fold change /veh CAPN14 (11732068_a_at) / RFU TMCC2 (11721928_a_at) / Fold change /veh TMCC2 (11721928_a_at) / RFU IRGQ (11745062_a_at) / Fold change /veh IRGQ (11745062_a_at) / RFU FAM174B (11720279_a_at) / Fold change /veh FAM174B (11720279_a_at) / RFU TMPRSS4 (11748680_a_at) / Fold change /veh TMPRSS4 (11748680_a_at) / RFU FAM212B (11763350_a_at) / Fold change /veh FAM212B (11763350_a_at) / RFU PLEKHG5 (11743358_a_at) / Fold change /veh PLEKHG5 (11743358_a_at) / RFU ZSCAN30 (11745921_a_at) / Fold change /veh ZSCAN30 (11745921_a_at) / RFU CMKLR1 (11741424_a_at) / Fold change /veh CMKLR1 (11741424_a_at) / RFU LOC101060620 /// MAPK8IP1 (11723275_at) / Fold change /veh LOC101060620 /// MAPK8IP1 (11723275_at) / RFU SPTSSB (11747773_x_at) / Fold change /veh SPTSSB (11747773_x_at) / RFU PRSS12 (11739890_at) / Fold change /veh PRSS12 (11739890_at) / RFU BIN1 (11741810_x_at) / Fold change /veh BIN1 (11741810_x_at) / RFU WNT11 (11732464_a_at) / Fold change /veh WNT11 (11732464_a_at) / RFU C10orf10 (11716521_a_at) / Fold change /veh C10orf10 (11716521_a_at) / RFU C5orf56 (11738089_at) / Fold change /veh C5orf56 (11738089_at) / RFU CYB561 (11721691_x_at) / Fold change /veh CYB561 (11721691_x_at) / RFU ANKRD19P (11752326_a_at) / Fold change /veh ANKRD19P (11752326_a_at) / RFU OR2T12 /// OR2T33 /// OR2T8 (11738714_s_at) / Fold change /veh OR2T12 /// OR2T33 /// OR2T8 (11738714_s_at) / RFU VCAN (11748164_a_at) / Fold change /veh VCAN (11748164_a_at) / RFU JSRP1 (11732532_at) / Fold change /veh JSRP1 (11732532_at) / RFU KRTAP10-11 (11738290_x_at) / Fold change /veh KRTAP10-11 (11738290_x_at) / RFU MYO3A (11730013_a_at) / Fold change /veh MYO3A (11730013_a_at) / RFU EBF3 (11725865_a_at) / Fold change /veh EBF3 (11725865_a_at) / RFU CAMK2N1 (11719241_x_at) / Fold change /veh CAMK2N1 (11719241_x_at) / RFU C5orf56 (11738088_a_at) / Fold change /veh C5orf56 (11738088_a_at) / RFU OLFML3 (11715873_a_at) / Fold change /veh OLFML3 (11715873_a_at) / RFU LOC100653217 /// NTM (11731650_a_at) / Fold change /veh LOC100653217 /// NTM (11731650_a_at) / RFU MAPK11 (11762145_a_at) / Fold change /veh MAPK11 (11762145_a_at) / RFU FIZ1 (11724087_x_at) / Fold change /veh FIZ1 (11724087_x_at) / RFU OASL (11726364_x_at) / Fold change /veh OASL (11726364_x_at) / RFU SOX15 (11748057_x_at) / Fold change /veh SOX15 (11748057_x_at) / RFU CD79A (11719716_a_at) / Fold change /veh CD79A (11719716_a_at) / RFU HIST1H1D (11736915_at) / Fold change /veh HIST1H1D (11736915_at) / RFU CASKIN2 (11723855_a_at) / Fold change /veh CASKIN2 (11723855_a_at) / RFU LOC730098 (11760151_x_at) / Fold change /veh LOC730098 (11760151_x_at) / RFU OR4N2 (11742367_at) / Fold change /veh OR4N2 (11742367_at) / RFU PRRT2 (11749266_a_at) / Fold change /veh PRRT2 (11749266_a_at) / RFU SNX32 (11753110_a_at) / Fold change /veh SNX32 (11753110_a_at) / RFU CDHR5 (11726645_a_at) / Fold change /veh CDHR5 (11726645_a_at) / RFU RCAN1 (11760418_a_at) / Fold change /veh RCAN1 (11760418_a_at) / RFU FAM167A (11723789_a_at) / Fold change /veh FAM167A (11723789_a_at) / RFU FAM26E (11764081_at) / Fold change /veh FAM26E (11764081_at) / RFU ISYNA1 (11749810_s_at) / Fold change /veh ISYNA1 (11749810_s_at) / RFU ACY1 (11761880_at) / Fold change /veh ACY1 (11761880_at) / RFU 11764098_at / Fold change /veh 11764098_at / RFU SAMD14 (11745864_x_at) / Fold change /veh SAMD14 (11745864_x_at) / RFU NPB (11741838_a_at) / Fold change /veh NPB (11741838_a_at) / RFU TMPRSS6 (11731388_a_at) / Fold change /veh TMPRSS6 (11731388_a_at) / RFU KRTAP10-2 (11738614_at) / Fold change /veh KRTAP10-2 (11738614_at) / RFU ARHGAP8 /// PRR5-ARHGAP8 (11727945_x_at) / Fold change /veh ARHGAP8 /// PRR5-ARHGAP8 (11727945_x_at) / RFU KRTAP5-7 /// NADSYN1 (11734609_at) / Fold change /veh KRTAP5-7 /// NADSYN1 (11734609_at) / RFU RASL12 (11751679_a_at) / Fold change /veh RASL12 (11751679_a_at) / RFU CDKN2B (11736163_a_at) / Fold change /veh CDKN2B (11736163_a_at) / RFU PRF1 (11729649_at) / Fold change /veh PRF1 (11729649_at) / RFU, ZNF638 /// ZNF638-IT1 / Fold change vs veh, ZNF638 /// ZNF638-IT1 / RFU, PANK3 / Fold change vs veh, PANK3 / RFU, SH3YL1 / Fold change vs veh, SH3YL1 / RFU, ZEB2 / Fold change vs veh, ZEB2 / RFU, NRIP1 / Fold change vs veh, NRIP1 / RFU, PTTG1IP / Fold change vs veh, PTTG1IP / RFU, CAPN2 / Fold change vs veh, CAPN2 / RFU, MED14 / Fold change vs veh, MED14 / RFU, SNORA58 / Fold change vs veh, SNORA58 / RFU, C1orf63 / Fold change vs veh, C1orf63 / RFU, LRRFIP1 / Fold change vs veh, LRRFIP1 / RFU, NDUFAF7 / Fold change vs veh, NDUFAF7 / RFU, SLC12A2 / Fold change vs veh, SLC12A2 / RFU, IBTK / Fold change vs veh, IBTK / RFU, ESF1 / Fold change vs veh, ESF1 / Fold change vs veh, TMEM50B / RFU, TAOK1 / Fold change vs veh, TAOK1 / RFU, ACBD3 / Fold change vs veh, ACBD3 / RFU, TMA16 / Fold change vs veh, TMA16 / RFU, RWDD3 / Fold change vs veh, RWDD3 / RFU, BCAT1 / Fold change vs veh, BCAT1 / RFU, EDEM3 / Fold change vs veh, EDEM3 / RFU, TMEM33 / Fold change vs veh, TMEM33 / RFU, WDR75 / Fold change vs veh, WDR75 / RFU, AHCTF1 / Fold change vs veh, AHCTF1 / RFU, TFRC / Fold change vs veh, TFRC / RFU, ZDHHC17 / Fold change vs veh, ZDHHC17 / RFU, NOM1 / Fold change vs veh, NOM1 / RFU, ARL8B / Fold change vs veh, ARL8B / RFU, ZBTB11 / Fold change vs veh, ZBTB11 / RFU, TAMM41 / Fold change vs veh, TAMM41 / RFU, KIAA1704 /// LOC100996395 / Fold change vs veh, KIAA1704 /// LOC100996395 / RFU, ING1 / Fold change vs veh, ING1 / RFU, TRMT61B / Fold change vs veh, TRMT61B / RFU, FUBP3 / Fold change vs veh, FUBP3 / RFU, TP53 / Fold change vs veh, TP53 / RFU, TNKS2 / Fold change vs veh, TNKS2 / RFU, ZFP14 / Fold change vs veh, ZFP14 / RFU, ACTR2 / Fold change vs veh, ACTR2 / RFU, PPP3R1 / Fold change vs veh, PPP3R1 / RFU, PIK3R1 / Fold change vs veh, PIK3R1 / RFU, HNRNPA1 / Fold change vs veh, HNRNPA1 / RFU, RNF170 / Fold change vs veh, RNF170 / RFU, ZNF28 / Fold change vs veh, ZNF28 / RFU, RNGTT / Fold change vs veh, RNGTT / RFU, OGT / Fold change vs veh, OGT / RFU, BRD1 / Fold change vs veh, BRD1 / RFU, MARS / Fold change vs veh, MARS / RFU, ZNF655 / Fold change vs veh, ZNF655 / RFU, FAHD1 / Fold change vs veh, FAHD1 / RFU, BDP1 / Fold change vs veh, BDP1 / RFU, LRRCC1 / Fold change vs veh, LRRCC1 / RFU, ARID1A / Fold change vs veh, ARID1A / RFU, ZNF146 / Fold change vs veh, ZNF146 / RFU, ZNF330 / Fold change vs veh, ZNF330 / RFU, GPN3 / Fold change vs veh, GPN3 / RFU, C9orf123 / Fold change vs veh, C9orf123 / RFU, N4BP2L2 / Fold change vs veh, N4BP2L2 / RFU, ARFIP1 / Fold change vs veh, ARFIP1 / RFU, FAM179B / Fold change vs veh, FAM179B / RFU, BCL10 / Fold change vs veh, BCL10 / RFU, UHRF1BP1L / Fold change vs veh, UHRF1BP1L / RFU, BET1 / Fold change vs veh, BET1 / RFU, CNOT2 / Fold change vs veh, CNOT2 / RFU, ZNF268 / Fold change vs veh, ZNF268 / Fold change vs veh, ZNF507 / RFU, DGCR2 / Fold change vs veh, DGCR2 / RFU, WDSUB1 / Fold change vs veh, WDSUB1 / Fold change vs veh, HSP90B1 /// MIR3652 / RFU, ADSS / Fold change vs veh, ADSS / RFU, GK / Fold change vs veh, GK / RFU, ZNF148 / Fold change vs veh, ZNF148 / RFU, TAF9 / Fold change vs veh, TAF9 / RFU, SLC1A5 / Fold change vs veh, SLC1A5 / RFU, SLMO2 / Fold change vs veh, SLMO2 / RFU, ABCC4 / Fold change vs veh, ABCC4 / RFU, LOC101060439 /// RAP1B / Fold change vs veh, LOC101060439 /// RAP1B / RFU, RFX7 / Fold change vs veh, RFX7 / RFU, GTPBP10 / Fold change vs veh, GTPBP10 / RFU, CNEP1R1 / Fold change vs veh, CNEP1R1 / RFU, BIVM-ERCC5 /// ERCC5 / Fold change vs veh, BIVM-ERCC5 /// ERCC5 / RFU, ILF3 / Fold change vs veh, ILF3 / RFU 11762660_at / Fold change /veh 11762660_at / RFU VCAN (11757783_s_at) / Fold change /veh VCAN (11757783_s_at) / RFU DDX43 (11728927_at) / Fold change /veh DDX43 (11728927_at) / RFU KRT8 (11758188_x_at) / Fold change /veh KRT8 (11758188_x_at) / RFU NKD1 (11759106_at) / Fold change /veh NKD1 (11759106_at) / RFU SRD5A1 (11742802_a_at) / Fold change /veh SRD5A1 (11742802_a_at) / RFU TPSAB1 /// TPSB2 (11721975_s_at) / Fold change /veh TPSAB1 /// TPSB2 (11721975_s_at) / RFU GSTM3 (11746129_a_at) / Fold change /veh GSTM3 (11746129_a_at) / RFU IL23R (11737362_x_at) / Fold change /veh IL23R (11737362_x_at) / RFU TMEM51 (11727254_a_at) / Fold change /veh TMEM51 (11727254_a_at) / RFU PIWIL2 (11732686_x_at) / Fold change /veh PIWIL2 (11732686_x_at) / RFU ORM1 (11744905_x_at) / Fold change /veh ORM1 (11744905_x_at) / RFU CCDC152 (11743942_at) / Fold change /veh CCDC152 (11743942_at) / RFU ECM1 (11717891_a_at) / Fold change /veh ECM1 (11717891_a_at) / RFU IL23R (11748794_a_at) / Fold change /veh IL23R (11748794_a_at) / RFU TNFAIP8L3 (11732012_x_at) / Fold change /veh TNFAIP8L3 (11732012_x_at) / RFU MBOAT4 (11741988_at) / Fold change /veh MBOAT4 (11741988_at) / RFU 11764193_at / Fold change /veh 11764193_at / RFU TMEM53 (11763286_at) / Fold change /veh TMEM53 (11763286_at) / RFU MAGEB2 (11727129_at) / Fold change /veh MAGEB2 (11727129_at) / RFU TMEM200A (11744735_a_at) / Fold change /veh TMEM200A (11744735_a_at) / RFU CCDC152 (11751479_a_at) / Fold change /veh CCDC152 (11751479_a_at) / RFU FAM211A (11726209_a_at) / Fold change /veh FAM211A (11726209_a_at) / RFU RGS16 (11746705_a_at) / Fold change /veh RGS16 (11746705_a_at) / RFU VCAN (11755009_s_at) / Fold change /veh VCAN (11755009_s_at) / RFU RHOB (11743442_s_at) / Fold change /veh RHOB (11743442_s_at) / RFU RGS16 (11720943_a_at) / Fold change /veh RGS16 (11720943_a_at) / RFU RGS16 (11720944_at) / Fold change /veh RGS16 (11720944_at) / RFU, VPS4B / Fold change vs veh, VPS4B / RFU, CREB1 / Fold change vs veh, CREB1 / RFU, DNAJC13 / Fold change vs veh, DNAJC13 / RFU, GNAQ / Fold change vs veh, GNAQ / RFU, CDK5R1 / Fold change vs veh, CDK5R1 / RFU, ZRANB3 / Fold change vs veh, ZRANB3 / RFU, CUL4A / Fold change vs veh, CUL4A / RFU, CCNY / Fold change vs veh, CCNY / RFU, UFL1 / Fold change vs veh, UFL1 / RFU, COG3 / Fold change vs veh, COG3 / RFU, DIAPH2 / Fold change vs veh, DIAPH2 / RFU, SKA2 / Fold change vs veh, SKA2 / RFU, AFF3 / Fold change vs veh, AFF3 / RFU, LMF1 / Fold change vs veh, LMF1 / RFU, IPO11 / Fold change vs veh, IPO11 / RFU, DFFB / Fold change vs veh, DFFB / RFU, FOXP1 / Fold change vs veh, FOXP1 / RFU, CARD8 / Fold change vs veh, CARD8 / RFU, STRN3 / Fold change vs veh, STRN3 / RFU, ADK / Fold change vs veh, ADK / RFU, RASSF2 / Fold change vs veh, RASSF2 / RFU, WIPF1 / Fold change vs veh, WIPF1 / RFU, LARP1B / Fold change vs veh, LARP1B / RFU, RASA1 / Fold change vs veh, RASA1 / RFU, RB1 / Fold change vs veh, RB1 / RFU, PPFIA1 / Fold change vs veh, PPFIA1 / RFU, MAT2A / Fold change vs veh, MAT2A / RFU, CCT5 / Fold change vs veh, CCT5 / RFU, WDR92 / Fold change vs veh, WDR92 / RFU, CUX1 / Fold change vs veh, CUX1 / RFU, TTC7A / Fold change vs veh, TTC7A / RFU, TMEM135 / Fold change vs veh, TMEM135 / RFU, DEPTOR / Fold change vs veh, DEPTOR / RFU, CPM / Fold change vs veh, CPM / RFU, DNAJB6 / Fold change vs veh, DNAJB6 / RFU, CACNA2D3 / Fold change vs veh, CACNA2D3 / RFU, DTX4 / Fold change vs veh, DTX4 / RFU, TFCP2 / Fold change vs veh, TFCP2 / RFU, GMCL1 /// GMCL1P1 / Fold change vs veh, GMCL1 /// GMCL1P1 / RFU, AEBP2 / Fold change vs veh, AEBP2 / RFU, SNHG1 /// SNORD22 /// SNORD25 /// SNORD26 /// SNORD27 /// SNORD28 /// SNORD29 /// SNORD31 / Fold change vs veh, SNHG1 /// SNORD22 /// SNORD25 /// SNORD26 /// SNORD27 /// SNORD28 /// SNORD29 /// SNORD31 / Fold change (Aza/veh), C12orf56 (ProbeSet 11735607_a_at) / Fold change (ACY-1035/veh), C12orf56 (ProbeSet 11735607_a_at) / Fold change (Aza/veh), FGFR1OP (ProbeSet 11751329_s_at) / Fold change (ACY-1035/veh), FGFR1OP (ProbeSet 11751329_s_at) / Fold change (Aza/veh), VPS36 (ProbeSet 11739960_a_at) / Fold change (ACY-1035/veh), VPS36 (ProbeSet 11739960_a_at) / RFU SYPL1 (11715823_x_at) / Fold change /veh SYPL1 (11715823_x_at) / RFU IGFBP7 (11715501_s_at) / Fold change /veh IGFBP7 (11715501_s_at) / RFU REEP3 (11722064_at) / Fold change /veh REEP3 (11722064_at) / RFU IGLL1 (11728026_x_at) / Fold change /veh IGLL1 (11728026_x_at): dose or concentration left out as unconfirmed. As to conditions: MV-4-11 cells, 48 hours.

As to `Nc1ncn([C@@H]2O[C@H](CO)[C@@H](O)[C@H]2O)c(=O)n1` [azacitidine], the “Fold change /veh TMEM200A (11744735_a_at)” value was 1.56.

These data come from article PMC5218480 (PLoS ONE, 2017).
